# Laboratory results as given in the RepoRT retention time repository (doi:10.1016/j.foodchem.2021.129757).
# How the values were obtained:
# Conditions in all cases: stereoisomer not certain
# [1] = RP, Agilent ZORBAX RRHD Eclipse Plus C18, 50 × 2.1 mm, 1.8 µm, 30 °C, 0.4 mL/min, estimated dead time 0.28 min; A: water + 0.1% formic acid, pH 3; B: acetonitrile + 0.1% formic acid, pH 3; gradient (min/%B) 0/1 5/10 8/25 9.1/99 10/99 12/99
# [2] = RP, Phenomenex Kinetex EVO C18, 100 × 2.1 mm, 2.6 µm, 40 °C, 0.4 mL/min, estimated dead time 0.55 min; A: water + 0.2% formic acid; B: acetonitrile + 0.2% formic acid; gradient (min/%B) 0/5 0.5/5 7/95 8/95 8.5/5 12/5
# [3] = RP, Agilent ZORBAX RRHD Eclipse Plus C18, 50 × 2.1 mm, 1.8 µm, 30 °C, 0.4 mL/min, estimated dead time 0.28 min; A: water + 0.1% formic acid, pH 3; B: acetonitrile + 0.1% formic acid, pH 3; gradient (min/%B) 0/1 5/10 8/25 9.1/99 10/99 12/1
# [4] = RP, Waters ACQUITY UPLC HSS T3, 100 × 2.1 mm, 1.8 µm, 30 °C, 0.4 mL/min, estimated dead time 0.55 min; A: water + 0.1% formic acid, pH 3; B: acetonitrile + 0.1% formic acid, pH 3; gradient (min/%B) 0/0 2/0 15/100 22/100 22.1/0 26/0
# [5] = RP, Phenomenex Synergi Hydro-RP, 250 × 2 mm, 4 µm, 25 °C, 0.2 mL/min, estimated dead time 2.5 min; A: water + 0.1% formic acid, pH 3; B: acetonitrile + 0.1% formic acid, pH 3; gradient (min/%B) 0/0.5 7/0.5 12/12.5 25/16.3 47/35 48/65 50/65 50.1/0.5
# [6] = RP, Waters ACQUITY UPLC HSS T3, 100 × 2.1 mm, 50 °C; A: water + 0.1% formic acid, pH 3; B: 30% methanol + 70% acetonitrile + 0.1% formic acid, pH 3; gradient (min/%B) 0/5 1/8 2/15 3/40 4/70 4.5/100 5/100 6.4/100 6.6/5 6.8/5 7/5
# [7] = RP, 150 × 2.1 mm, 2.6 µm, 40 °C, 0.35 mL/min, estimated dead time 0.94 min; A: water + 0.1% formic acid, pH 3; B: acetonitrile + 0.1% formic acid, pH 3; gradient (min/%B) 0/0 1/0 12.5/100 14/100 14.2/0 15/0
# [8] = RP, 150 × 2.1 mm, 2.6 µm, 40 °C, 0.35 mL/min, estimated dead time 0.94 min; A: water + 0.1% formic acid, pH 3; B: acetonitrile + 0.1% formic acid, pH 3; gradient (min/%B) 0/0 1/5 7/45 8.5/80 10.5/80 11/5 12/5
# [9] = RP, Waters Atlantis T3, 100 × 2.1 mm, 3 µm, 40 °C, 0.3 mL/min, estimated dead time 0.73 min; A: water + 0.1% trifluoroacetic acid, pH 2; B: acetonitrile + 0.1% trifluoroacetic acid, pH 2; gradient (min/%B) 0/10 1/10 6/40 7/50 8/50 14/70 16/80 20/10 25/10
# [10] = RP, Agilent InfinityLab Poroshell 120 EC-C18, 100 × 3 mm, 2.7 µm, 25 °C, 0.4 mL/min, estimated dead time 1.1 min; A: water + 0.1% formic acid, pH 3; B: acetonitrile + 0.1% formic acid, pH 3; gradient (min/%B) 0/5 10/25 20/40 24/90 25/90 26/5 30/5
LC retention time [1],LC retention time [2],LC retention time [3],Compound,other results
3.73 min,2.18 min,4.12 min,"O=Cc1ccc(O)c(O)c1 [3,4-Dihydroxybenzaldehyde]",
7.28 min,4.51 min,7.32 min,O=C(O)CCc1cccc(O)c1 [3-(3-hydroxyphenyl)propanoic acid],LC retention time [4]: 9.17 min; LC retention time [5]: 29.5 min
1.63 min,1.55 min,3.19 min,O=C(O)CNC(=O)c1ccc(O)cc1 [4-Hydroxyhippuric acid],LC retention time [6]: 2.19 min; LC retention time [7]: 3.82 min; LC retention time [8]: 3.56 min
,2.34 min,,O=C1CCC(Cc2cc(O)cc(OC3OC(C(=O)O)C(O)C(O)C3O)c2)O1 (stereo not drawn) [5-(5'-Hydroxyphenyl)-gamma-valerolactone-3'-glucuronide],
,4.31 min,,O=C1CCC(Cc2cccc(OC3OC(C(=O)O)C(O)C(O)C3O)c2)O1 (stereo not drawn) [5-Phenyl-gamma-valerolactone-3'-glucuronide],
,4.96 min,,O=C1CCC(Cc2cccc(OS(=O)(=O)O)c2)O1 (stereo not drawn) [5-Phenyl-gamma-valerolactone-3'-sulfate],
,,,CC(C)=CCc1c(O)cc(O)c2c1OC(c1ccc(O)cc1)CC2=O (stereo not drawn) [8-prenylnaringenin],LC retention time [9]: 12.7 min
1.78 min,2.45 min,3.98 min,O=C(O)C=Cc1ccc(OC2OC(C(=O)O)C(O)C(O)C2O)c(O)c1 (stereo not drawn) [Caffeic acid-4-glucuronide],
,,,CC(C)c1cc2c(c(O)c1O)C1(C(=O)O)CCCC(C)(C)C1CC2 (stereo not drawn) [Carnosic acid],LC retention time [9]: 15.2 min
,,,COc1ccc(C2CC(=O)c3c(O)cc(OC4OC(COC5OC(C)C(O)C(O)C5O)C(O)C(O)C4O)cc3O2)cc1 (stereo not drawn) [Didymin],LC retention time [9]: 9.08 min
6.53 min,4.22 min,6.49 min,COc1ccc(CCC(=O)O)cc1OC1OC(C(=O)O)C(O)C(O)C1O (stereo not drawn) [Dihydro isoferulic acid-3-O-glucuronide],
3.94 min,3.22 min,5.11 min,O=C(O)CCc1ccc(O)c(OC2OC(C(=O)O)C(O)C(O)C2O)c1 (stereo not drawn) [Dihydrocaffeic acid-3-O-glucuronide],
2.83 min,4.04 min,5.08 min,O=C(O)CCc1ccc(O)c(OS(=O)(=O)O)c1 [Dihydrocaffeic acid-3-O-sulfate],
4.05 min,4.36 min,5.86 min,COc1cc(CCC(=O)O)ccc1OS(=O)(=O)O [Dihydroferulic acid-4-O-Sulfate],
4.67 min,4.59 min,6.22 min,COc1cc(C=CC(=O)O)ccc1OS(=O)(=O)O [Ferulic acid 4-O-sulfate],
3.24 min,3.62 min,4.81 min,COc1cc(C=CC(=O)O)ccc1OC1OC(C(=O)O)C(O)C(O)C1O (stereo not drawn) [Ferulic acid-4-O-glucuronide],
,4.33 min,,COc1cc(C=CC(=O)NCC(=O)O)ccc1O [Feruloylglycine],
,5.32 min,,COc1ccc(C2CC(=O)c3c(O)cc(O)cc3O2)cc1OC1OC(C(=O)O)C(O)C(O)C1O (stereo not drawn) [Hesperetin 3'-O-glucuronide],LC retention time [10]: 12.2 min
,1.06 min,,O=C(O)c1ccc(OC2OC(C(=O)O)C(O)C(O)C2O)cc1 (stereo not drawn) [Hydroxybenzoic acid-4-glucuronide],
,2.55 min,,O=C(O)c1ccc(OS(=O)(=O)O)cc1 [Hydroxybenzoic acid-4-sulfate],
5.94 min,4.79 min,6.76 min,COc1ccc(C=CC(=O)O)cc1OS(=O)(=O)O [Isoferulic acid 3-O-sulfate],
6.38 min,4.25 min,6.36 min,COc1ccc(C=CC(=O)O)cc1OC1OC(C(=O)O)C(O)C(O)C1O (stereo not drawn) [Isoferulic acid-3-O-glucuronide],LC retention time [5]: 34.4 min

LC retention time [1],LC retention time [2],LC retention time [3],Compound,other results
3.47 min,3.68 min,3.98 min,COc1ccc(C(=O)O)cc1OS(=O)(=O)O [Isovanillic acid-3-O-sulfate],
,2.34 min,,COc1ccc(C(=O)O)cc1OC1OC(C(=O)O)C(O)C(O)C1O (stereo not drawn) [Isovanillic acid-3-glucuronide],
,,,COc1cc(O)c(CC=C(C)C)c2c1C(=O)CC(c1ccc(O)cc1)O2 (stereo not drawn) [Isoxanthumol],LC retention time [9]: 11.1 min
,5.18 min,,O=C1CC(c2ccc(OC3OC(C(=O)O)C(O)C(O)C3O)cc2)Oc2cc(O)cc(O)c21 (stereo not drawn) [Naringenin-4'-O-glucuronide],
,5.12 min,,O=C1CC(c2ccc(O)cc2)Oc2cc(OC3OC(C(=O)O)C(O)C(O)C3O)cc(O)c21 (stereo not drawn) [Naringenin-7-O-glucuronide],
,,,CC1OC(OCC2OC(Oc3cc(O)c4c(c3)OC(c3ccc(O)cc3)CC4=O)C(O)C(O)C2O)C(O)C(O)C1O (stereo not drawn) [Narirutin],LC retention time [9]: 7.65 min
,,,Oc1cc(O)c2c(c1)OC(c1ccc(O)c(O)c1)C(O)C2c1c(O)cc(O)c2c1OC(c1ccc(O)c(O)c1)C(O)C2c1c(O)cc(O)c2c1OC(c1ccc(O)c(O)c1)C(O)C2 (stereo not drawn) [Procyanidin C1],LC retention time [9]: 6.03 min
1.12 min,1.44 min,2.8 min,O=C(O)c1ccc(O)c(OC2OC(C(=O)O)C(O)C(O)C2O)c1 (stereo not drawn) [Protocatechuic acid-3-O-glucuronide],
0.954 min,2.38 min,2.44 min,O=C(O)c1ccc(OS(=O)(=O)O)c(O)c1 [Protocatechuic acid-4-O-sulfate],
,1.03 min,,O=C(O)c1ccc(OC2OC(C(=O)O)C(O)C(O)C2O)c(O)c1 (stereo not drawn) [Protocatechuic acid-4-glucuronide],
,4.85 min,,O=C(O)C1OC(Oc2cc(O)cc(C=Cc3ccc(O)cc3)c2)C(O)C(O)C1O (stereo not drawn) [Resveratrol 3-O-glucuronide],LC retention time [10]: 11 min
,5.89 min,,O=S(=O)(O)Oc1cc(O)cc(C=Cc2ccc(O)cc2)c1 [Resveratrol 3-O-sulfate],LC retention time [10]: 8.93 min
,4.64 min,,O=C(O)C1OC(Oc2ccc(C=Cc3cc(O)cc(O)c3)cc2)C(O)C(O)C1O (stereo not drawn) [Resveratrol 4-O-glucuronide],LC retention time [10]: 9.05 min
,,,CC(C)c1cc2c(c(O)c1O)C13CCCC(C)(C)C1C(OC3=O)C2O (stereo not drawn) [Rosmanol],LC retention time [9]: 11.8 min
,,,COc1cc(O)c2c(c1)OC(c1ccc(O)cc1)CC2=O (stereo not drawn) [Sakuranetin],LC retention time [9]: 12.1 min
,4.68 min,,O=c1oc2c(O)c(O)ccc2c2cc(O)c(O)cc12 [Urolithin  D],LC retention time [10]: 8.24 min
,5.23 min,,O=C(O)C1OC(Oc2ccc3c(c2)oc(=O)c2ccccc23)C(O)C(O)C1O (stereo not drawn) [Urolithin B-3-O-glucuronide],LC retention time [10]: 11.6 min
,5.11 min,,O=c1oc2cc(O)ccc2c2cc(O)c(O)cc12 [Urolithin C],LC retention time [10]: 10.3 min
2 min,3.13 min,3.82 min,COc1cc(C(=O)O)ccc1OS(=O)(=O)O [Vanillic acid-4-O-sulfate],
,,,COc1cc(O)c(CC=C(C)C)c(O)c1C(=O)C=Cc1ccc(O)cc1 [Xanthohumol],LC retention time [9]: 15.4 min
,2.38 min,,O=C(O)c1ccc(O)c(OS(=O)(=O)O)c1 [protocatechuic acid-3-O-sulfate],
